This note sets out measurements from US20070116831A1, “Dental Composition with High-Potency Sweetener” (THE COCA-COLA COMPANY, priority 2005, published 2007).

The data set in a line: Rate of dissolution in H2O at 25° C. of rebaudioside A polymorph and amorphous forms. The class given is physicochemical. The following applies: within 60 minutes. The text has this: The purification of rebaudioside A by crystallization as described above results in the formation of at least three different polymorphs: Form 1: a rebaudioside A hydrate; Form 2: an anhydrous rebaudioside A; and Form 3: a rebaudioside A solvate. In addition to the at least three polymorph forms of rebaudioside A, the purification of rebaudioside A may result in the formation of an amorphous form of rebaudioside A, Form 4. The aqueous organic solution and temperature of the purification process influence the resulting polymorph and amorphous forms in the substantially pure rebaudioside A composition. FIGS. 1-5 are exemplary powder x-ray diffraction (XRPD) scans of the polymorph and amorphous forms Form 1 (hydrate), Form 2 (anhydrate), Form 3A (methanol solvate), Form 3B (ethanol solvate), and Form 4 (amorphous), respectively.

Turning to rebaudioside A [Form 1], the “Rate of dissolution in H2O at 25° C.” value is “Very low (<0.2%/ %/60 minutes”.
